Measurements taken from patent US7083969B2, “Serratia marcescens strain” (Korea Research Institute of Bioscience and Biotechnology, priority 1997, dated 2006).

How the values were obtained:
[1] = tested on: Immune cells separated from the spleens; test: Viability of spleen immune cells cultured in vitro (cytotoxicity); type: cell-based, mice; details: ex vivo experiments
Source text: (§1) Germ-free test animals, mice BDF1 and B6C3F1, obtained from Genetic Resources Center, Korean Research Institute of Bioscience and Biotechnology in the Korean Institute of Science and Technology, were used for the assay of the immunosuppressive activity of prodigiosin. […] At such concentrations as show no cytotoxic effects, prodigiosin cannot suppress the immune response of B lymphocytes. […] This selective immunosuppression for T lymphocytes is not ascribed to the selective cytotoxicity for T lymphocytes. The same immunosuppression results as in the ex vivo experiments were obtained in in vivo experiments. When T lymphocyte activity was measured by use of a graft versus host reaction and a T cell-dependent antibody producing reaction, the prodigiosin suppressed the immune response, but exerted no toxicity on animals. Therefore, the immunosuppressive activity of the prodigiosin is thought to be attributed to the selective suppression for T lymphocyte activity.
(§2) Immune cells were separated from the spleens of the germ-free animals and cultured in vitro. The cultures were treated with the prodigiosin at various amounts from 3 nM to 30,000 nM and the viability of the cells were measured from the first day to the third day after the treatment. Based on the initial viability of the immune cells, the viabilities of the test groups were calculated. […] So, subsequent experiments for immunoactivity were carried out at not more than 100 nM in order to exclude the cytotoxicity and to measure only the immunosuppressive effect of the prodigiosin.

[2] = as above; type: cell-based, mice; details: mouse, immune cells separated from the spleen, cultured in vitro
Source text: as §1, §2

B and T lymphocytes = test: Pokeweed mitogen-induced B and T lymphocyte proliferation (DNA synthesis); type: cell-based, mice; details: for Proliferation (%) B/T cells: three days
Source text: as §1
(§3) Three standard substances which induce lymphocytes to proliferate were employed to measure the effect of the prodigiosin on proliferation of lymphocytes. 5 μg/ml of lipopolysaccharide were used to induce B lymphocyte to proliferate, 5 μg/ml of Concanavalin A for T lymphocyte and 5 μg/ml of Pokeweed mitogen for B and T lymphocytes, both. Prodigiosin was added, together with the proliferation-inducing substance. Three days after the addition, the proliferation effect was monitored by measuring the amount of DNA synthesized. In order to exclude the cytotoxicity of prodigiosin, it was used at a concentration of not more than 100 nM. In Table 2, the proliferation percentages mean the proliferated amounts of prodigiosin-treated lymphocytes relative to that of an non-treated group. As shown, the suppression percentage effected by prodigiosin in amounts of 30–100 nM reaches up to 96–98% for the T lymphocyte induced by concanavalin A while the proliferation of B lymphocyte induced by lipopolysaccharide and the proliferation of B/T lymphocytes induced by pokeweed mitogen are suppressed to the extent of 13–19% and 45–83%, respectively.

B lymphocytes = test: Selective cytotoxicity: proportion of B lymphocytes after treatment; type: cell-based, mice; details: for Proliferation (%) B cell: proportion of the cells
Source text: as §1
Whether the selective immunosuppression of prodigiosin for T cells is attributed to the selective cytotoxicity for T cells or not was assayed by measuring the proportion of the cells. On the third day after treatment of the immune cells with prodigiosin, the number of the cells was counted. Because T lymphocytes consist of CD4 T cell (helper T cell) and CD8 T cell (cytotoxic T cell), the proportion of T and B lymphocytes was calculated in this Example.

CD4 T lymphocytes = test: Immunosuppressive activity on CD4 T lymphocytes; type: cell-based
B lymphocyte = test: Lipopolysaccharide-induced B lymphocyte proliferation (DNA synthesis); type: cell-based, mice; details: for Proliferation (%) B cell: three days
Source text: as §1, §3

T lymphocytes = test: T cell-dependent immune response in vivo (antibody producing cells after sheep red blood cell immunization); set-up: species or system mice; details: for Immune Response (%): 4 days after immunization
Source text: as §1
A T cell-dependent immune response reaction was used to assess the influence of prodigiosin on T lymphocytes in vivo. Test animals were immunized with sheep red blood cells by peritoneal injection. 4 days after the immunization, the number of the antibody producing cells was counted. Prodigiosin was peritoneally injected everyday. Based on the number of the […] cells in the non-treated animals, the influence of prodigiosin on T lymphocytes in vivo was assessed as percentage. Also, the weight ratio of the spleen to the body was measured to assay the toxicity of prodigiosin to the animals. Cyclophosphamide was used as a positive control.

T lymphocyte = test: Concanavalin A-induced T lymphocyte proliferation (DNA synthesis); type: cell-based, mice; details: for Proliferation (%) T cell: three days
Source text: as §1, §3

## CCCCCC1=C/C(=C/c2[nH]c(-c3ccc[nH]3)cc2OC)N=C1C [Prodigiosin, prodigiosin]
[1]
  concentration with no cytotoxic effects: less than 100 nM
[2]; 3 nM, 1st day after treatment, based on initial viability
  viability at 1 day, 0.003 µM: 96%
[2]; 3 nM, 2nd day after treatment, based on initial viability
  viability at 2 day, 0.003 µM: 86%
[2]; 3 nM, 3rd day after treatment, based on initial viability
  viability at 3 day, 0.003 µM: 79%
[2]; 10 nM, 1st day
  viability at 1 day, 0.01 µM: 89%
[2]; 10 nM, 2nd day
  viability at 2 day, 0.01 µM: 82%
[2]; 10 nM, 3rd day
  viability at 3 day, 0.01 µM: 79%
[2]; 30 nM, 1st day
  viability at 1 day, 0.03 µM: 89%
[2]; 30 nM, 2nd day
  viability at 2 day, 0.03 µM: 70%
[2]; 30 nM, 3rd day
  viability at 3 day, 0.03 µM: 81%
[2]; 100 nM, 1st day
  viability at 1 day, 0.1 µM: 82%
[2]; 100 nM, 2nd day
  viability at 2 day, 0.1 µM: 70%
[2]; 100 nM, 3rd day
  viability at 3 day, 0.1 µM: 70%
[2]; 300 nM, 1st day
  viability at 1 day, 0.3 µM: 68%
[2]; 300 nM, 2nd day
  viability at 2 day, 0.3 µM: 14%
[2]; 300 nM, 3rd day
  viability at 3 day, 0.3 µM: 18%
[2]; 1,000 nM, 1st day
  viability at 1 day, 1000 nM: 74%
[2]; 1,000 nM, 2nd day
  viability at 2 day, 1000 nM: 14%
[2]; 1,000 nM, 3rd day
  viability at 3 day, 1000 nM: 14%
[2]; 3,000 nM, 1st day
  viability at 1 day, 3000 nM: 61%
[2]; 3,000 nM, 2nd day
  viability at 2 day, 3000 nM: 9%
[2]; 3,000 nM, 3rd day
  viability at 3 day, 3000 nM: 8%
[2]; 10,000 nM, 1st day
  viability at 1 day, 10000 nM: 32%
[2]; 10,000 nM, 2nd day
  viability at 2 day, 10000 nM: 4%
[2]; 10,000 nM, 3rd day
  viability at 3 day, 10000 nM: 4%
[2]; 30,000 nM, 1st day
  viability at 1 day, 30000 nM: 4%
[2]; 30,000 nM, 2nd day
  viability at 2 day, 30000 nM: 4%
[2]; 30,000 nM, 3rd day
  viability at 3 day, 30000 nM: 4%
B and T lymphocytes; 3 nM, 5 μg/ml Pokeweed mitogen, relative to non-treated group
  Proliferation (%) B/T cells: 100%
B and T lymphocytes; 10 nM, Pokeweed mitogen
  Proliferation (%) B/T cells: 86%
B and T lymphocytes; 30 nM, Pokeweed mitogen
  Proliferation (%) B/T cells: 55%
B and T lymphocytes; 100 nM, Pokeweed mitogen
  Proliferation (%) B/T cells: 17%
B and T lymphocytes; 30–100 nM
  suppression of proliferation of B/T lymphocytes induced by pokeweed mitogen: 45–83%
B lymphocytes; 3 nM, third day after treatment
  Proliferation (%) B cell: 47%
B lymphocytes; 10 nM, third day
  Proliferation (%) B cell: 49%
B lymphocytes; 30 nM, third day
  Proliferation (%) B cell: 50%
B lymphocytes; 100 nM, third day
  Proliferation (%) B cell: 52%
B lymphocytes; B, CD4 T and CD8 T cell proportions, 3-100 nM, third day
  selective cytotoxicity for B, CD4 T and CD8 T lymphocytes: no selective cytotoxicity
CD4 T lymphocytes
  immunosuppressive activity on CD4 T lymphocytes: has an immunosuppressive activity
B lymphocyte; 3 nM, 5 μg/ml lipopolysaccharide, relative to non-treated group
  Proliferation (%) B cell: 101%
B lymphocyte; 10 nM, lipopolysaccharide
  Proliferation (%) B cell: 105%
B lymphocyte; 30 nM, lipopolysaccharide
  Proliferation (%) B cell: 87%
B lymphocyte; 100 nM, lipopolysaccharide
  Proliferation (%) B cell: 81%
B lymphocyte; 30–100 nM
  suppression of proliferation of B lymphocyte induced by lipopolysaccharide: 13–19%
B lymphocyte; non-cytotoxic concentrations
  effect on proliferation of B lymphocytes: no influence
T lymphocytes; 10 mg/kg peritoneally everyday, antibody producing cells vs non-treated animals
  Immune Response (%): 32%
T lymphocytes; 30 mg/kg peritoneally everyday
  Immune Response (%): 27%
T lymphocytes; peritoneal injection everyday
  number of the antibody-producing cells: significantly reduced
T lymphocyte; 3 nM, 5 μg/ml Concanavalin A, relative to non-treated group
  Proliferation (%) T cell: 77%
T lymphocyte; 10 nM, Concanavalin A
  Proliferation (%) T cell: 46%
T lymphocyte; 30 nM, Concanavalin A
  Proliferation (%) T cell: 4%
T lymphocyte; 100 nM, Concanavalin A
  Proliferation (%) T cell: 2%
T lymphocyte; 30–100 nM
  suppression percentage, T lymphocyte induced by concanavalin A: 96–98%
T lymphocyte; non-cytotoxic concentrations
  effect on proliferation and activity of T lymphocytes: potential suppressive effect
